# US7459450B2, “Neuropeptide receptor modulators” (Schering Corporation, priority 2004, dated 2008)
# Target: T1, Human NPY Y1 receptors (Homo sapiens, UniProt P25929)
# T1 construct: expressed in transfected cells; host or cells: CHO cells (membrane protein)
# T1 sequence (P25929 1-384): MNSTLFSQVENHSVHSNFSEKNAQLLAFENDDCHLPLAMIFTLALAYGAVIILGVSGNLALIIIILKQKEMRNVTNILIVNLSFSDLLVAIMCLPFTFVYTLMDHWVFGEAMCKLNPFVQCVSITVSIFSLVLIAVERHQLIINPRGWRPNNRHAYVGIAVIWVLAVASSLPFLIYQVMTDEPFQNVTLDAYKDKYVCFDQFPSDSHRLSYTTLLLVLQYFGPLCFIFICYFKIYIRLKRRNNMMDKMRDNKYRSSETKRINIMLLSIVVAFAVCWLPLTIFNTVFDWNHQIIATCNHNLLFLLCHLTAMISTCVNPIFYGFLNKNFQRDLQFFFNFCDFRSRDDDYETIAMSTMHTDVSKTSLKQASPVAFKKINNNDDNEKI
# Test: NPY Receptor Binding Assay
# Details: not given
# Protocol: NPY Receptor Binding Assay
# Human NPY Y1 receptors were expressed in CHO cells. Binding assays were performed in 50 mM HEPES, pH 7.2, 2.5 mM CaCl2, 1 mM MgCl2 and 0.1% BSA containing 5-10 μg of membrane protein and 0.1 nM […] in a total volume of 200 μl. Non-specific binding was determined in the presence of 1 μM NPY. The reaction mixtures were incubated for 90 minutes at room temperature then filtered through Millipore MAFC glass fiber filter plates which had been pre-soaked in 0.5% polyethleneimine. The filters were washed with phosphate-buffered saline, and radioactivity was measured in a Packard TopCount scintillation counter.
row,SMILES,Ki
1,CC(C)C[C@@H]1N/C(=N/c2ccc(CCNc3nc4ccc([N+](=O)[O-])cc4s3)cc2)SC1=O [Example 340],> 10 µM
2,O=C1S/C(=N\c2ccc(CCNc3nc4ccc([N+](=O)[O-])cc4s3)cc2)N2CCC[C@@H]12 [Example 341],> 10 µM
3,O=C(O)C[C@@H]1N/C(=N/c2ccc(CCNc3nc4ccc([N+](=O)[O-])cc4s3)cc2)SC1=O [Example 342],> 10 µM
4,C[C@@H]1N/C(=N/c2ccc(CCNc3nc4ccc([N+](=O)[O-])cc4s3)cc2)SC1=O [Example 343],> 10 µM
5,COc1ccc2nc(NCCc3ccc(/N=C4/N[C@@H](Cc5ccccc5)C(=O)S4)cc3)sc2c1 [Example 344],> 10 µM
6,COc1ccc2nc(NCCc3ccc(/N=C4/N[C@@H](CC(C)C)C(=O)S4)cc3)sc2c1 [Example 345],> 10 µM
7,COc1ccc2nc(NCCc3ccc(/N=C4/N[C@@H](C(C)C)C(=O)S4)cc3)sc2c1 [Example 346],> 10 µM
8,COc1ccc2nc(NCCc3ccc(/N=C4\SC(=O)[C@@H]5CCCN45)cc3)sc2c1 [Example 347],> 10 µM
9,COc1ccc2nc(NCCc3ccc(/N=C4/N[C@@H](CC(=O)O)C(=O)S4)cc3)sc2c1 [Example 348],> 10 µM
10,COc1ccc2nc(NCCc3ccc(/N=C4/N[C@@H](C)C(=O)S4)cc3)sc2c1 [Example 349],> 10 µM
11,Cc1ccc2nc(NCCc3ccc(/N=C4/N[C@@H](Cc5ccccc5)C(=O)S4)cc3)sc2c1 [Example 350],> 10 µM
12,Cc1ccc2nc(NCCc3ccc(/N=C4/N[C@@H](CC(C)C)C(=O)S4)cc3)sc2c1 [Example 351],> 10 µM
13,CS(=O)(=O)c1ccc2nc(NCCc3ccc(/N=C4\SC(=O)[C@@H]5CCCN45)cc3)sc2c1 [Example 352],> 10 µM
14,CS(=O)(=O)c1ccc2nc(NCCc3ccc(/N=C4/N[C@@H](CC(=O)O)C(=O)S4)cc3)sc2c1 [Example 353],> 10 µM
15,C[C@@H]1N/C(=N/c2ccc(CCNc3nc4ccc(S(C)(=O)=O)cc4s3)cc2)SC1=O [Example 354],> 10 µM
16,O=C1S/C(=N\c2ccc(CCNc3nc4ccc([N+](=O)[O-])cc4s3)cc2)N[C@H]1Cc1ccccc1 [Example 355],> 10 µM
17,CC(C)[C@@H]1N/C(=N/c2ccc(CCNc3nc4ccc([N+](=O)[O-])cc4s3)cc2)SC1=O [Example 356],> 10 µM
18,CSCC[C@@H]1N/C(=N/c2ccc(CCNc3nc4ccc(C)cc4s3)cc2)SC1=O [Example 357],1 to 10 µM
19,O=C(O)C[C@@H]1N/C(=N/c2ccc(CCNc3nc4ccc(Cl)cc4s3)cc2)SC1=O [Example 358],> 10 µM
20,CC(C)[C@@H]1N/C(=N/c2ccc(CCNc3nc4ccc(S(C)(=O)=O)cc4s3)cc2)SC1=O [Example 359],> 10 µM
21,O=C1S/C(=N\c2ccc(CCNc3nc4cc(Cl)c(Cl)cc4s3)cc2)N[C@H]1Cc1ccccc1 [Example 360],> 10 µM

# Now from value to molecule:
row,Ki,SMILES
1,> 10 µM,CSCC[C@@H]1N/C(=N/c2ccc(CCNc3nc4cc(Cl)c(Cl)cc4s3)cc2)SC1=O [Example 361]
2,> 10 µM,CC(C)C[C@@H]1N/C(=N/c2ccc(CCNc3nc4cc(Cl)c(Cl)cc4s3)cc2)SC1=O [Example 362]
3,> 10 µM,CC(C)[C@@H]1N/C(=N/c2ccc(CCNc3nc4cc(Cl)c(Cl)cc4s3)cc2)SC1=O [Example 363]
4,> 10 µM,COc1cccc2sc(NCCc3ccc(/N=C4/N[C@@H](CC(C)C)C(=O)S4)cc3)nc12 [Example 364]
5,> 10 µM,COc1cccc2sc(NCCc3ccc(/N=C4/N[C@@H](C(C)C)C(=O)S4)cc3)nc12 [Example 365]
6,> 10 µM,COc1cccc2sc(NCCc3ccc(/N=C4\SC(=O)[C@@H]5CCCN45)cc3)nc12 [Example 366]
7,> 10 µM,COc1cccc2sc(NCCc3ccc(/N=C4/N[C@@H](CC(=O)O)C(=O)S4)cc3)nc12 [Example 367]
8,> 10 µM,COc1cccc2sc(NCCc3ccc(/N=C4/N[C@@H](C)C(=O)S4)cc3)nc12 [Example 368]
9,> 10 µM,Cc1cccc2sc(NCCc3ccc(/N=C4/N[C@@H](Cc5ccccc5)C(=O)S4)cc3)nc12 [Example 369]
10,> 10 µM,Cc1cccc2sc(NCCc3ccc(/N=C4/N[C@@H](CC(C)C)C(=O)S4)cc3)nc12 [Example 370]
11,> 10 µM,Cc1cccc2sc(NCCc3ccc(/N=C4/N[C@@H](C(C)C)C(=O)S4)cc3)nc12 [Example 371]
12,> 10 µM,Cc1cccc2sc(NCCc3ccc(/N=C4/N[C@@H](CC(=O)O)C(=O)S4)cc3)nc12 [Example 372]
13,> 10 µM,O=C1S/C(=N\c2ccc(CCNc3nc4ccc(F)cc4s3)cc2)N[C@H]1Cc1ccccc1 [Example 373]
14,> 10 µM,CC(C)[C@@H]1N/C(=N/c2ccc(CCNc3nc4ccc(F)cc4s3)cc2)SC1=O [Example 374]
15,> 10 µM,O=C1S/C(=N\c2ccc(CCNc3nc4ccc(F)cc4s3)cc2)N2CCC[C@@H]12 [Example 375]
16,> 10 µM,O=C1CN/C(=N\c2cccc(CCNc3nc4ccccc4s3)c2)S1 [Example 376]
17,> 10 µM,O=C1CN/C(=N/c2ccc(CCNc3nc4ccccc4s3)cc2)S1 [Example 377]
18,> 10 µM,Cc1ccc2nc(NCCc3ccc(/N=C4/N[C@@H](C(C)C)C(=O)S4)cc3)sc2c1 [Example 378]
19,> 10 µM,Cc1ccc2nc(NCCc3ccc(/N=C4\SC(=O)[C@@H]5CCCN45)cc3)sc2c1 [Example 379]
20,> 10 µM,Cc1ccc2nc(NCCc3ccc(/N=C4/N[C@@H](CC(=O)O)C(=O)S4)cc3)sc2c1 [Example 380]
21,> 10 µM,Cc1ccc2nc(NCCc3ccc(/N=C4/N[C@@H](C)C(=O)S4)cc3)sc2c1 [Example 381]
22,> 10 µM,O=C1S/C(=N\c2ccc(CCNc3nc4ccc(Cl)cc4s3)cc2)N[C@H]1Cc1ccccc1 [Example 382]
23,> 10 µM,CC(C)C[C@@H]1N/C(=N/c2ccc(CCNc3nc4ccc(Cl)cc4s3)cc2)SC1=O [Example 383]
24,> 10 µM,CC(C)[C@@H]1N/C(=N/c2ccc(CCNc3nc4ccc(Cl)cc4s3)cc2)SC1=O [Example 384]
25,> 10 µM,O=C1SC(=Nc2ccc(CCNc3nc4ccc(Cl)cc4s3)cc2)N2CCCC12 (stereo not drawn) [Example 385]
26,> 10 µM,C[C@@H]1N/C(=N/c2ccc(CCNc3nc4ccc(Cl)cc4s3)cc2)SC1=O [Example 386]
27,> 10 µM,CS(=O)(=O)c1ccc2nc(NCCc3ccc(/N=C4/N[C@@H](Cc5ccccc5)C(=O)S4)cc3)sc2c1 [Example 387]
28,> 10 µM,CSCC[C@@H]1N/C(=N/c2ccc(CCNc3nc4ccc(S(C)(=O)=O)cc4s3)cc2)SC1=O [Example 388]
29,> 10 µM,CC(C)C[C@@H]1N/C(=N/c2ccc(CCNc3nc4ccc(S(C)(=O)=O)cc4s3)cc2)SC1=O [Example 389]

# Same assay, conditions: Procedure E compounds, rated A/B/C
row,Ki,SMILES
1,< 1 µM,c1ccc2sc(NCCc3ccc(/N=C4/N[C@@H](Cc5c[nH]cn5)CS4)cc3)nc2c1 [Example 270]
2,< 1 µM,c1ccc2sc(NCCc3ccc(/N=C4/NC5(CCCC5)CS4)cc3)nc2c1 [Example 271]
3,< 1 µM,CC1(C)CS/C(=N\c2ccc(CCNc3nc4ccccc4s3)cc2)N1 [Example 272]
4,< 1 µM,CC(C)C[C@@H]1CS/C(=N\c2ccc(CCNc3nc4ccc(F)cc4s3)cc2)N1 [Example 297]
5,> 10 µM,CC1(C)CS/C(=N/c2cccc(CCNc3nc4ccccc4s3)c2)N1 [Example 321]
6,> 10 µM,COc1ccc2nc(NCCc3ccc(/N=C4/NCC(C)S4)cc3)sc2c1 (stereo not drawn) [Example 322]
7,> 10 µM,Cc1ccc2nc(NCCc3ccc(/N=C4/N[C@@H](C)C(c5ccccc5)S4)cc3)sc2c1 (stereo partly drawn) [Example 323]
8,> 10 µM,Cc1ccc2nc(NCCc3ccc(/N=C4/NCC(C)S4)cc3)sc2c1 (stereo not drawn) [Example 324]
9,> 10 µM,COc1cccc2sc(NCCc3ccc(/N=C4/N[C@H]5c6ccccc6CC5S4)cc3)nc12 (stereo partly drawn) [Example 325]
10,> 10 µM,COc1cccc2sc(NCCc3ccc(/N=C4/NCC(C)S4)cc3)nc12 (stereo not drawn) [Example 326]
11,> 10 µM,Cc1cccc2sc(NCCc3ccc(/N=C4/NCC(C)S4)cc3)nc12 (stereo not drawn) [Example 327]
12,< 1 µM,Fc1ccc2nc(NCCc3ccc(/N=C4/N[C@H]5c6ccccc6CC5S4)cc3)sc2c1 (stereo partly drawn) [Example 328]
13,> 10 µM,Fc1ccc2nc(NCCc3ccc(/N=C4/NCC(c5ccccc5)S4)cc3)sc2c1 (stereo not drawn) [Example 329]
14,> 10 µM,CC1CN/C(=N/c2ccc(CCNc3nc4ccc(F)cc4s3)cc2)S1 (stereo not drawn) [Example 330]
15,> 10 µM,CC1CN/C(=N/c2ccc(CCNc3nc4ccc(Cl)cc4s3)cc2)S1 (stereo not drawn) [Example 331]
16,> 10 µM,CS(=O)(=O)c1ccc2nc(NCCc3ccc(/N=C4/N[C@H]5c6ccccc6CC5S4)cc3)sc2c1 (stereo partly drawn) [Example 332]
17,< 1 µM,COc1ccc(C2CCSC(Nc3ccc(CCNc4nc5ccccc5s4)cc3)=N2)cc1 (stereo not drawn) [Example 333]
18,< 1 µM,CC(C)C1CCSC(Nc2ccc(CCNc3nc4ccccc4s3)cc2)=N1 (stereo not drawn) [Example 334]
19,< 1 µM,Brc1ccc(C2CCSC(Nc3ccc(CCNc4nc5ccccc5s4)cc3)=N2)cc1 (stereo not drawn) [Example 335]
20,> 10 µM,c1ccc2c(CC3CSC(Nc4ccc(CCNc5nc6ccccc6s5)cc4)=N3)cccc2c1 (stereo not drawn) [Example 336]
21,< 1 µM,Clc1ccc(C2CCSC(Nc3ccc(CCNc4nc5ccccc5s4)cc3)=N2)cc1 (stereo not drawn) [Example 337]
22,< 1 µM,CC(C)CC1CCSC(Nc2ccc(CCNc3nc4ccccc4s3)cc2)=N1 (stereo not drawn) [Example 338]
